Reference: patent US7919480B2, “Polymers having covalently bound antibiotic agents” (Ethicon, Inc., priority 2007, dated 2011)

System: S. aureus ATCC 6538
Test: log reduction assay (Example 4)
Assay type: cell-based
Method: Sample of ONM covalently bound to ORC (ORC-ONM-CV) from example 3 were tested for its in vitro efficacy by log reduction assay. In the log reduction assay, the test articles (squares of about 4.0 mg/piece) were challenged with about 1-2×10e4 CFU bacteria on the surface of the test articles for one hour. To facilitate the test of efficacy on surface of the test articles with covalent bound ONM, the inoculum was delivered in 10 ul/item, the small volume relative to the test articles allowed complete absorption of the inoculum by the test articles such that the inoculum localized on surfaces of the test articles. The inoculum was prepared in 20× potassium phosphate buffer, which maintained pH of the test articles close to neutral. The antimicrobial efficacy of ORC at neutral pH will be minimized, so that the log reduction would indicate the antibacterial efficacy of ONM rather than ORC. After the challenge, the test article was immersed in saline with shaking to remove survival bacteria and the survival bacteria were measured by plate count. The plate counts were conducted in trypticase soy agar and incubated at 37° C. for 24 hours.

POLYQUATERNIUM 1 [ONM control]
log reduction (log CFU of inoculum − log CFU of treated, 1 h challenge): 4.2 log | log CFU (surviving bacteria after 1 h challenge with about 1-2x10e4 CFU, neutral pH): 0.3 log CFU
